Source: PubChem BioAssay AID248 (DTP/NCI, 2004)
Values joined by “and” are separate entries in the source; they are usually repeats but may differ in a detail not shown here. Identical values can stand only once. Inconclusive results and toxic doses are left out. Rule as the data show it: active = T/C of 150% or more; inactive = T/C below 125%.

System: L1210 leukemia ip in BDF1 mice, survival T/C
Test: NCI In Vivo Anticancer Drug Screen. Data for tumor model L1210 Leukemia (intraperitoneal) in B6D2F1 (BDF1) mice
Conditions: endpoint: mean survival time, higher = longer survival
Outline: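 Mice bearing the transplanted tumor received compound or vehicle. Survival of the treated group was divided by that of the vehicle-treated control group to give the ratio.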

[1] = dose: 100.0 mg/kg/injection, schedule: Q01DX001 (ip), vehicle: saline with Tween-80
[2] = dose: 100.0 mg/kg/injection, schedule: Q01DX009 (ip), vehicle: Klucel (hydroxypropylcellulose) (HPC)
[3] = dose: 100.0 mg/kg/injection, schedule: Q04DX003 (ip), vehicle: Klucel (hydroxypropylcellulose) (HPC)
[4] = dose: 200.0 mg/kg/injection, schedule: Q01DX009 (ip), vehicle: Klucel (hydroxypropylcellulose) (HPC)
[5] = dose: 200.0 mg/kg/injection, schedule: Q04DX003 (ip), vehicle: Klucel (hydroxypropylcellulose) (HPC)
[6] = dose: 100.0 mg/kg/injection, schedule: Q01DX001 (ip), vehicle: saline
[7] = dose: 200.0 mg/kg/injection, schedule: Q01DX001 (ip), vehicle: saline
[8] = dose: 400.0 mg/kg/injection, schedule: Q01DX001 (ip), vehicle: saline
[9] = dose: 400.0 mg/kg/injection, schedule: Q01DX009 (ip), vehicle: Klucel (hydroxypropylcellulose) (HPC)
[10] = dose: 400.0 mg/kg/injection, schedule: Q04DX003 (ip), vehicle: Klucel (hydroxypropylcellulose) (HPC)
[11] = dose: 50.0 mg/kg/injection, schedule: Q01DX001 (ip), vehicle: saline
[12] = dose: 100.0 mg/kg/injection, schedule: Q04DX003 (ip), vehicle: saline
[13] = dose: 200.0 mg/kg/injection, schedule: Q04DX003 (ip), vehicle: saline
[14] = dose: 400.0 mg/kg/injection, schedule: Q04DX003 (ip), vehicle: saline
[15] = dose: 75.0 mg/kg/injection, schedule: Q01DX009 (ip), vehicle: Klucel (hydroxypropylcellulose) (HPC)
[16] = dose: 150.0 mg/kg/injection, schedule: Q01DX009 (ip), vehicle: Klucel (hydroxypropylcellulose) (HPC)
[17] = dose: 300.0 mg/kg/injection, schedule: Q01DX009 (ip), vehicle: Klucel (hydroxypropylcellulose) (HPC)
[18] = dose: 100.0 mg/kg/injection, schedule: Q04DX002 (ip), vehicle: saline with Tween-80
[19] = dose: 200.0 mg/kg/injection, schedule: Q04DX002 (ip), vehicle: saline with Tween-80
[20] = dose: 100.0 mg/kg/injection, schedule: Q01DX009 (ip), vehicle: saline
[21] = dose: 200.0 mg/kg/injection, schedule: Q01DX009 (ip), vehicle: saline

Measured: T/C

Cc1ccc(OC(=O)C(C(=O)Oc2ccc(C)cc2)C(=O)Oc2ccc(C)cc2)cc1
inactive: dose: 25.0 mg/kg/injection, schedule: Q01DX001 (ip), vehicle: saline with Tween-80 104 % of control | dose: 50.0 mg/kg/injection, schedule: Q01DX001 (ip), vehicle: saline with Tween-80 101 % of control | [1] 95 % of control and 98 % of control

C[CH2][Pb]([CH2]C)([CH2]C)[O]S(=O)(=O)c1ccc(C)cc1
inactive: dose: 1.56 mg/kg/injection, schedule: Q01DX009 (ip), vehicle: saline with Tween-80 95 % of control | dose: 3.13 mg/kg/injection, schedule: Q01DX009 (ip), vehicle: saline with Tween-80 96 % of control

C/C(=C\Cn1ccccc1=O)CCC(=O)O
inactive: dose: 100.0 mg/kg/injection, schedule: Q01DX009 (ip), vehicle: water 100 % of control | dose: 100.0 mg/kg/injection, schedule: Q04DX003 (ip), vehicle: other 94 % of control | dose: 200.0 mg/kg/injection, schedule: Q01DX009 (ip), vehicle: water 97 % of control | dose: 200.0 mg/kg/injection, schedule: Q04DX003 (ip), vehicle: other 98 % of control | dose: 400.0 mg/kg/injection, schedule: Q01DX009 (ip), vehicle: water 96 % of control | dose: 400.0 mg/kg/injection, schedule: Q04DX003 (ip), vehicle: other 89 % of control

C1=C(c2ccccc2)CC2CCCC1N2Cc1ccccc1 (configuration not stated)
inactive: dose: 12.5 mg/kg/injection, schedule: Q04DX003 (ip), vehicle: Klucel (hydroxypropylcellulose) (HPC) 102 % of control | dose: 25.0 mg/kg/injection, schedule: Q04DX003 (ip), vehicle: Klucel (hydroxypropylcellulose) (HPC) 102 % of control | dose: 50.0 mg/kg/injection, schedule: Q04DX003 (ip), vehicle: Klucel (hydroxypropylcellulose) (HPC) 94 % of control

Cc1cc(Cl)nc(Cl)c1C#N
inactive: [2] 101 % of control | [3] 100 % of control | [4] 97 % of control | [5] 89 % of control

CNC(=O)n1ncc2ccc([N+](=O)[O-])cc21
inactive: [6] 107 % of control | [7] 107 % of control | [8] 102 % of control

Cc1c(C)c([N+](=O)[O-])c(C)c(C)c1[N+](=O)[O-]
inactive: [2] 91 % of control | [3] 96 % of control | [4] 98 % of control | [5] 100 % of control | [9] 93 % of control | [10] 101 % of control

C=CCc1ccc2c(C)cc[n+](C)c2c1O
inactive: [6] 91 % of control | [7] 93 % of control

O=C(CC1CCCCC1O)Nc1ccccc1 (configuration not stated)
inactive: [11] 97 % of control | [6] 95 % of control | [7] 101 % of control | [8] 97 % of control

CC(=O)Nc1cc2c(cc1[N+](=O)[O-])-c1ccc([N+](=O)[O-])cc1C2
inactive: [2] 95 % of control | [3] 93 % of control | [4] 89 % of control | [5] 91 % of control | [9] 94 % of control | [10] 94 % of control

O=C(c1ccccc1Br)N1CCN=C(c2ccccc2)C=C1c1ccccc1
inactive: [12] 93 % of control | [13] 94 % of control | [14] 100 % of control

CC(C)(C)c1ccc(SC/C=C/COc2ccccc2)cc1
inactive: [15] 101 % of control | [16] 90 % of control | [17] 91 % of control

Cc1ccc(S(=O)(=O)c2ccc(C)c(N)c2)cc1N
inactive: dose: 100.0 mg/kg/injection, schedule: Q04DX002 (ip), vehicle: saline 105 % of control | dose: 200.0 mg/kg/injection, schedule: Q04DX002 (ip), vehicle: saline 99 % of control | dose: 400.0 mg/kg/injection, schedule: Q04DX002 (ip), vehicle: saline 96 % of control

Cc1nc(N)[nH]c(=O)c1CCCOc1ccccc1
inactive: dose: 50.0 mg/kg/injection, schedule: Q01DX Z (ip), vehicle: carboxymethylcellulose (CMC) 95 % of control | dose: 100.0 mg/kg/injection, schedule: Q01DX Z (ip), vehicle: carboxymethylcellulose (CMC) 93 % of control | dose: 200.0 mg/kg/injection, schedule: Q01DX Z (ip), vehicle: carboxymethylcellulose (CMC) 93 % of control | dose: 400.0 mg/kg/injection, schedule: Q01DX Z (ip), vehicle: carboxymethylcellulose (CMC) 93 % of control

CC(Br)c1ccc(S(=O)(=O)F)cc1 (configuration not stated)
inactive: [18] 104 % of control | [19] 101 % of control

O=C(Nc1ccc(Cl)cc1Cl)c1ccc2c(c1)C(=O)OC2=O
inactive: dose: 100.0 mg/kg/injection, schedule: Q01DX009 (ip), vehicle: saline with Tween-80 90 % of control | dose: 200.0 mg/kg/injection, schedule: Q01DX009 (ip), vehicle: saline with Tween-80 92 % of control | dose: 400.0 mg/kg/injection, schedule: Q01DX009 (ip), vehicle: saline with Tween-80 92 % of control

Cc1cc(N)no1
inactive: [20] 100 % of control | [12] 108 % of control | [21] 104 % of control | [13] 106 % of control | dose: 400.0 mg/kg/injection, schedule: Q01DX009 (ip), vehicle: saline 104 % of control | [14] 108 % of control

CC(C)(C)OC(=O)NCC(=O)O
inactive: dose: 50.0 mg/kg/injection, schedule: Q01DX009 (ip), vehicle: saline 93 % of control | dose: 75.0 mg/kg/injection, schedule: Q01DX001 (ip), vehicle: acetone 93 % of control | [20] 96 % of control | [12] 97 % of control | dose: 150.0 mg/kg/injection, schedule: Q01DX001 (ip), vehicle: acetone 99 % of control | [21] 93 % of control | [13] 106 % of control | dose: 300.0 mg/kg/injection, schedule: Q01DX001 (ip), vehicle: acetone 103 % of control

O=c1[nH]nnc2nc(CCCc3ccccc3)[nH]c12
inactive: [1] 98 % of control | dose: 200.0 mg/kg/injection, schedule: Q01DX001 (ip), vehicle: saline with Tween-80 111 % of control | dose: 400.0 mg/kg/injection, schedule: Q01DX001 (ip), vehicle: saline with Tween-80 104 % of control

COC1(c2ccccc2)OC(Cc2ccccc2)=NC1(C)C (configuration not stated)
inactive: [3] 94 % of control | [5] 94 % of control | [10] 94 % of control

CC(C)C(=O)Nc1ccc(S(=O)(=O)Cl)cc1
inactive: dose: 100.0 mg/kg/injection, schedule: Q04DX003 (ip), vehicle: saline with Tween-80 95 % of control | dose: 200.0 mg/kg/injection, schedule: Q04DX003 (ip), vehicle: saline with Tween-80 90 % of control | dose: 400.0 mg/kg/injection, schedule: Q04DX003 (ip), vehicle: saline with Tween-80 86 % of control

CN(C)c1ncnc2c1ncn2C1OC(CO)C(N)C1O (configuration not stated)
inactive: dose: 6.25 mg/kg/injection, schedule: Q01DX009 (ip), vehicle: saline 111 % of control | dose: 12.5 mg/kg/injection, schedule: Q01DX009 (ip), vehicle: saline 111 % of control | dose: 25.0 mg/kg/injection, schedule: Q01DX009 (ip), vehicle: saline 117 % of control | [11] 109 % of control | [6] 109 % of control | [7] 109 % of control | [8] 115 % of control

c1ccc(CCNc2ccc(NCCc3ccccc3)cc2)cc1
inactive: dose: 75.0 mg/kg/injection, schedule: Q01DX001 (ip), vehicle: Klucel (hydroxypropylcellulose) (HPC) 92 % of control | [15] 97 % of control | dose: 150.0 mg/kg/injection, schedule: Q01DX001 (ip), vehicle: Klucel (hydroxypropylcellulose) (HPC) 106 % of control | [16] 100 % of control | dose: 300.0 mg/kg/injection, schedule: Q01DX001 (ip), vehicle: Klucel (hydroxypropylcellulose) (HPC) 97 % of control | [17] 106 % of control

CN1CCN(c2nc3nnnn3c3ccccc23)CC1
inactive: dose: 50.0 mg/kg/injection, schedule: Q04DX003 (ip), vehicle: saline 101 % of control | [12] 104 % of control | [13] 101 % of control

O=C(CC(=O)c1ccccc1)c1ccccc1
inactive: [18] 97 % of control | [19] 102 % of control | dose: 400.0 mg/kg/injection, schedule: Q04DX002 (ip), vehicle: saline with Tween-80 94 % of control

Clc1ccc(Cl)c(-c2csc(Nc3cccnc3)n2)c1
inactive: [12] 92 % of control | [13] 94 % of control | [14] 97 % of control
